Tested on: NL-RLuc virus
Assay: Inhibition of HIV replication (NL-RLuc luciferase reporter virus in MT-2 cells)
Assay type: cell-based
Conditions: Human immunodeficiency virus 1, MT2, 120 h, read-out: Activity
Method in brief: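 The read-out is Renilla luciferase expressed by replication-competent NL-RLuc (nef partly replaced), measured 5 days after infection of MT-2 cells grown with compound dilutions in 10% FBS RPMI. Median effect equation gives EC50 from ≥2 runs; A ≤100 nM, B 100 nM–1 uM, C >1 uM.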

Structure (SMILES) | EC50
Cc1cccc(Cl)c1CN1CCc2cc(-c3c(CN4CCC(C)(C)CC4)nc(C)c([C@H](OC(C)(C)C)C(=O)O)c3N3CCC(C)(C)CC3)ccc2C1 [Example 179, (S)-2-(tert-Butoxy)-2-(5-(2-(2-chloro-6-methylbenzyl)-1,2,3,4-tetrahydroisoquinolin-6-yl)-4-(4,4-dimethylpiperidin-1-yl)-6-((4,4-dimethylpiperidin-1-yl)methyl)-2-methylpyridin-3-yl)acetic acid] | < 0.1 µM
Cc1nc(CN(C)C)c(-c2ccc(OCCc3ccc(F)cc3)cc2)c(N2CCC(C)(C)CC2)c1[C@H](OC(C)(C)C)C(=O)O [Example 65, (S)-2-(tert-Butoxy)-2-(6-((dimethylamino)methyl)-4-(4,4-dimethylpiperidin-1-yl)-5-(4-(4-fluorophenethoxy)phenyl)-2-methylpyridin-3-yl)acetic acid] | < 0.1 µM
Cc1nc(CNCC2CCCCC2)c(-c2ccc(OCCc3ccc(F)cc3)cc2)c(N2CCC(C)(C)CC2)c1[C@H](OC(C)(C)C)C(=O)O [Example 99, (S)-2-(tert-Butoxy)-2-(6-(((cyclohexylmethyl)amino)methyl)-4-(4,4-dimethylpiperidin-1-yl)-5-(4-(4-fluorophenethoxy)phenyl)-2-methylpyridin-3-yl)acetic acid] | < 0.1 µM
Cc1cc(F)ccc1CN1CCc2cc(-c3c(CN4CCC5(CCC5)CC4)nc(C)c([C@H](OC(C)(C)C)C(=O)O)c3N3CCC(C)(C)CC3)ccc2C1 [Example 134, (S)-2-(6-(7-Azaspiro[3.5]nonan-7-ylmethyl)-4-(4,4-dimethylpiperidin-1-yl)-5-(2-(4-fluoro-2-methylbenzyl)-1,2,3,4-tetrahydroisoquinolin-6-yl)-2-methylpyridin-3-yl)-2-(tert-butoxy)acetic acid] | < 0.1 µM
Cc1nc(CC2=CCCCC2)c(-c2ccc(OCCc3ccc(F)cc3)cc2)c(N2CCC(C)(C)CC2)c1[C@H](OC(C)(C)C)C(=O)O [Example 171, (S)-2-(tert-Butoxy)-2-(6-(cyclohex-1-en-1-ylmethyl)-4-(4,4-dimethylpiperidin-1-yl)-5-(4-(4-fluorophenethoxy)phenyl)-2-methylpyridin-3-yl)acetic acid] | < 0.1 µM
CC#Cc1nc(C)c([C@H](OC(C)(C)C)C(=O)O)c(N2CCC(C)(C)CC2)c1-c1ccc(OCCc2ccc(F)cc2)cc1 [Example 163, (S)-2-(tert-butoxy)-2-(4-(4,4-dimethylpiperidin-1-yl)-5-(4-(4-fluorophenethoxy)phenyl)-2-methyl-6-(prop-1-yn-1-yl)pyridin-3-yl)acetic acid] | < 0.1 µM
Cc1nc(CCCOC(C)C)c(-c2ccc(OCCc3ccc(F)cc3)cc2)c(N2CCC(C)(C)CC2)c1[C@H](OC(C)(C)C)C(=O)O [Example 56, (S)-2-(tert-Butoxy)-2-(4-(4,4-dimethylpiperidin-1-yl)-5-(4-(4-fluorophenethoxy)phenyl)-6-(3-isopropoxypropyl)-2-methylpyridin-3-yl)acetic acid] | < 0.1 µM
CC(=O)NCc1nc(C)c([C@H](OC(C)(C)C)C(=O)O)c(N2CCC(C)(C)CC2)c1-c1ccc(OCCc2ccc(F)cc2)cc1 [Example 106, (S)-2-(6-(Acetamidomethyl)-4-(4,4-dimethylpiperidin-1-yl)-5-(4-(4-fluorophenethoxy)phenyl)-2-methylpyridin-3-yl)-2-(tert-butoxy)acetic acid] | < 0.1 µM
Cc1cc(F)ccc1CN1CCc2cc(-c3c(CN)nc(C)c([C@H](OC(C)(C)C)C(=O)O)c3N3CCC(C)(C)CC3)ccc2C1 [Example 139, (S)-2-(6-(Aminomethyl)-4-(4,4-dimethylpiperidin-1-yl)-5-(2-(4-fluoro-2-methylbenzyl)-1,2,3,4-tetrahydroisoquinolin-6-yl)-2-methylpyridin-3-yl)-2-(tert-butoxy)acetic acid] | < 0.1 µM
Cc1nc(N)c(-c2ccc3c(c2)CCN(c2ncnc4c2oc2ccccc24)C3)c(N2CCC(C)(C)CC2)c1[C@H](OC(C)(C)C)C(=O)O [Example 167, (S)-2-(6-amino-5-(2-(benzofuro[3,2-d]pyrimidin-4-yl)-1,2,3,4-tetrahydroisoquinolin-6-yl)-4-(4,4-dimethylpiperidin-1-yl)-2-methylpyridin-3-yl)-2-(tert-butoxy)acetic acid] | < 0.1 µM
Cc1nc(CN2CCN(C)CC2)c(-c2ccc(OCCc3ccc(F)cc3)cc2)c(N2CCC(C)(C)CC2)c1[C@H](OC(C)(C)C)C(=O)O [Example 94, (S)-2-(tert-Butoxy)-2-(4-(4,4-dimethylpiperidin-1-yl)-5-(4-(4-fluorophenethoxy)phenyl)-2-methyl-6-((4-methylpiperazin-1-yl)methyl)pyridin-3-yl)acetic acid] | < 0.1 µM
COCc1nc(C)c([C@H](OC(C)(C)C)C(=O)O)c(N2CCC(C)(C)CC2)c1-c1ccc2c(c1)CCN(Cc1ccc(F)cc1C)C2 [Example 157, (S)-2-(tert-Butoxy)-2-(4-(4,4-dimethylpiperidin-1-yl)-5-(2-(4-fluoro-2-methylbenzyl)-1,2,3,4-tetrahydroisoquinolin-6-yl)-6-(methoxymethyl)-2-methylpyridin-3-yl)acetic acid] | < 0.1 µM
Cc1nc(N)c(-c2ccc(OCCc3ccc(F)cc3)cc2)c(N2CCC(C)(C)CC2)c1[C@H](OC(C)(C)C)C(=O)O [Example 46, (S)-2-(6-Amino-4-(4,4-dimethylpiperidin-1-yl)-5-(4-(4-fluorophenethoxy)phenyl)-2-methylpyridin-3-yl)-2-(tert-butoxy)acetic acid] | < 0.1 µM
CCOCCOCc1nc(C)c(-c2ccc(OCCc3ccc(F)cc3)cc2)c(N2CCC(C)(C)CC2)c1[C@H](OC(C)(C)C)C(=O)O [Example 108, (S)-2-(tert-Butoxy)-2-(4-(4,4-dimethylpiperidin-1-yl)-2-((2-ethoxyethoxy)methyl)-5-(4-(4-fluorophenethoxy)phenyl)-6-methylpyridin-3-yl)acetic acid] | < 0.1 µM
Cc1nc(CN(C)CC2CCCCC2)c(-c2ccc(OCCc3ccc(F)cc3)cc2)c(N2CCC(C)(C)CC2)c1[C@H](OC(C)(C)C)C(=O)O [Example 100, (S)-2-(tert-Butoxy)-2-(6-(((cyclohexylmethyl)(methyl)amino)methyl)-4-(4,4-dimethylpiperidin-1-yl)-5-(4-(4-fluorophenethoxy)phenyl)-2-methylpyridin-3-yl)acetic acid] | < 0.1 µM
Cc1cc(F)ccc1CN1CCc2cc(-c3c(COCC4CCOCC4)nc(C)c([C@H](OC(C)(C)C)C(=O)O)c3N3CCC(C)(C)CC3)ccc2C1 [Example 159, (S)-2-(tert-Butoxy)-2-(4-(4,4-dimethylpiperidin-1-yl)-5-(2-(4-fluoro-2-methylbenzyl)-1,2,3,4-tetrahydroisoquinolin-6-yl)-2-methyl-6-(((tetrahydro-2H-pyran-4-yl)methoxy)methyl)pyridin-3-yl)acetic acid] | < 0.1 µM
Cc1cc(F)ccc1CN1CCc2cc(-c3c(C(C)N(C)CC4CCOCC4)nc(C)c([C@H](OC(C)(C)C)C(=O)O)c3N3CCC(C)(C)CC3)ccc2C1 (single isomer, unassigned) [Example 150] | < 0.1 µM
Cc1cc(F)ccc1CN1CCc2cc(-c3c(N)nc(C)c([C@H](OC(C)(C)C)C(=O)O)c3N3CCC(C)(C)CC3)ccc2C1 [Example 147, (S)-2-(6-Amino-4-(4,4-dimethylpiperidin-1-yl)-5-(2-(4-fluoro-2-methylbenzyl)-1,2,3,4-tetrahydroisoquinolin-6-yl)-2-methylpyridin-3-yl)-2-(tert-butoxy)acetic acid] | < 0.1 µM

Same assay, conditions: Human immunodeficiency virus 1, MT2, 120 h, read-out: EC50 μM

Structure (SMILES) | EC50
Cc1cccc(Cl)c1CN1CCc2cc(-c3c(CN4CCC(C)(C)CC4)nc(C)c([C@H](OC(C)(C)C)C(=O)O)c3N3CCC(C)(C)CC3)ccc2C1 [Example 179, (S)-2-(tert-Butoxy)-2-(5-(2-(2-chloro-6-methylbenzyl)-1,2,3,4-tetrahydroisoquinolin-6-yl)-4-(4,4-dimethylpiperidin-1-yl)-6-((4,4-dimethylpiperidin-1-yl)methyl)-2-methylpyridin-3-yl)acetic acid] | 0.005 µM
Cc1cc(F)ccc1CN1CCc2cc(-c3c(CN4CCC5(CCC5)CC4)nc(C)c([C@H](OC(C)(C)C)C(=O)O)c3N3CCC(C)(C)CC3)ccc2C1 [Example 134, (S)-2-(6-(7-Azaspiro[3.5]nonan-7-ylmethyl)-4-(4,4-dimethylpiperidin-1-yl)-5-(2-(4-fluoro-2-methylbenzyl)-1,2,3,4-tetrahydroisoquinolin-6-yl)-2-methylpyridin-3-yl)-2-(tert-butoxy)acetic acid] | 0.001 µM
Cc1nc(CN(C)CC2CCCCC2)c(-c2ccc(OCCc3ccc(F)cc3)cc2)c(N2CCC(C)(C)CC2)c1[C@H](OC(C)(C)C)C(=O)O [Example 100, (S)-2-(tert-Butoxy)-2-(6-(((cyclohexylmethyl)(methyl)amino)methyl)-4-(4,4-dimethylpiperidin-1-yl)-5-(4-(4-fluorophenethoxy)phenyl)-2-methylpyridin-3-yl)acetic acid] | 0.003 µM

— US10351546B2, “Pyridin-3-yl acetic acid derivatives as inhibitors of human immunodeficiency virus replication” (priority 2015, dated 2019)
